Reference: PMC6756013, “B591, a novel specific pan-PI3K inhibitor, preferentially targets cancer stem cells” (Oncogene, 2019)

Experiments:
[1] = system: PI3K/Akt signaling in MDA-MB-231 and SUM-159PT cells; test: Western blot of PI3K/mTOR signaling (Supplementary Fig. S5A); settings: 5 h
[2] = system: MDA-MB-231 and SUM-159PT monolayer and mammosphere cells; test: Proliferation inhibition of monolayer versus mammosphere cells; type: cell-based, human
Description: The proliferation inhibitory activities of B591 were compared between monolayer and mammosphere cells.
(§1) Cells were treated with indicated agents for 48 h, and cells were harvested and processed for apoptosis assay using the PE-Annexin V/7-AAD Apoptosis Detection Kit. d Representative flow cytometry plots of apoptosis inducing activity of B591 (10 μM) and paclitaxel (10 nM) on monolayer and mammosphere MDA-MB-231 cells. e B591 preferentially targeted CD44^high/CD24^low cells. Cells were treated with B591 or paclitaxel for 2 days. Following a 4-day recovery period, cells were co-stained with CD44 and CD24 antibodies and subjected to FACS analysis. Representative flow cytometry plots show the effect of B591 on CD44^high/CD24^low population in MDA-MB-231 cells in vitro. f B591 decreased mammosphere forming efficiency. Primary MDA-MB-231 mammospheres were treated with B591 or paclitaxel for 48 h. Results of the secondary mammosphere-formation assay are shown. Scale bar represents 40 μm. g B591 decreased the expression of CSC markers in MDA-MB-231 cells. Cells were treated with B591 or paclitaxel for 2 days. […] They label a gated population in plots with axes CD44 and CD24. / Panel E: DMSO is the vehicle control. Its printed value is included all the same.

[3] = system: MDA-MB-231 and SUM-159PT monolayer and mammosphere cells; test: Apoptosis of monolayer versus mammosphere cells (PE-Annexin V/7-AAD); type: cell-based, human; settings: 48 h
Description: as §1
Supplementary Fig. S10. B591 preferentially targets CSCs. […] Following a 4-day recovery period, the expression of CSC markers was analyzed with western blot analysis.

[4] = system: MDA-MB-231 and SUM-159PT mammospheres; test: Secondary mammosphere-formation assay; type: cell-based, human; settings: primary mammospheres treated 48 h, then passaged
Description: Cells were treated with indicated agents for 48 h, and cells were harvested and processed for apoptosis assay using the PE-Annexin V/7-AAD Apoptosis Detection Kit. d Representative flow cytometry plots of apoptosis inducing activity of B591 (10 μM) and paclitaxel (10 nM) on monolayer and mammosphere MDA-MB-231 cells. e B591 preferentially targeted CD44^high/CD24^low cells. Cells were treated with B591 or paclitaxel for 2 days. Following a 4-day recovery period, cells were co-stained with CD44 and CD24 antibodies and subjected to FACS analysis. Representative flow cytometry plots show the effect of B591 on CD44^high/CD24^low population in MDA-MB-231 cells in vitro. f B591 decreased mammosphere forming efficiency. Primary MDA-MB-231 mammospheres were treated with B591 or paclitaxel for 48 h. Results of the secondary mammosphere-formation assay are shown. Scale bar represents 40 μm. g B591 decreased the expression of CSC markers in MDA-MB-231 cells. Cells were treated with B591 or paclitaxel for 2 days. […]
In the mammosphere assay, MDA-MB-231 (Fig. 3f) and SUM-159PT (Supplementary Fig. S10D) cells were treated with B591 or paclitaxel, and the mammospheres were collected and subsequently passaged. Secondary Mammosphere-forming activity was determined, which reflects the self-renewal capability of CSCs. […]

[5] = system: SUM-159PT cells; test: Mammosphere formation after paclitaxel pre-treatment; type: cell-based; settings: 8 nM Paclitaxel or 8 nM Paclitaxel plus 5 μM B591 for 24 h
Description: (§2) Fig. 6 B591 reduces breast tumor metastasis and recurrence. a Representative images show the effect of B591 (8 mg/kg) on lung metastasis of 4T1 cells, and data from six mice were plotted. b SUM-159PT cells were respectively treated with the indicated agents (8 nM Paclitaxel, 8 nM Paclitaxel plus 5 μM B591) for 24 h, the cells were then cultured for mammospheres. Representative images were shown, and data from two independent experiments were plotted. c–f SUM-159PT xenografts (n = 7) were treated with 4 mg/kg Paclitaxel, or 10 mg/kg B591, or both for 2 weeks, then ended the treatment and waited for tumor recurrence. Tumor volume (c) and body weight (d) were measured every 2 days after treatment, and tumors were photographed (e) and weighted (f) at the end of the experiment. ^*p < 0.05, ^**p < 0.01 versus indicated groups
Based on the finding that B591 preferentially targets CSCs, we supposed that by eliminating the breast CSCs, B591 might delay breast tumor recurrence after initial treatment with chemotherapy drugs. Paclitaxel is a first-line chemotherapeutic agent used for breast cancer therapy. SUM-159PT cells were pre-treated with paclitaxel, and then the cells remaining alive were cultured for mammospheres.

[6] = system: SUM-159PT orthotopic xenografts; test: Tumor recurrence study in SUM-159PT xenografts; type: in vivo, NOD/SCID mice; settings: paclitaxel 4 mg/kg, B591 10 mg/kg, i.p., 2 weeks, then 3 weeks recurrence
Description: as §2
In the tumor recurrence study, orthotopic xenografts were established with 5 × 10^6 SUM-159PT cells. When tumor volume reached about 50 mm^3, mice were randomly divided into four groups for treatment with vehicle, 4 mg/kg Paclitaxel, 10 mg/kg B591, and combination of 4 mg/kg Paclitaxel plus 10 mg/kg B591 (i.p.). Treatment was stopped after 2 weeks, and the tumors were allowed for recurrence for 3 weeks. Tumor volume and the body weight of mice were measured during the experiments. In the end of treatment, the mice were killed, and the tumor tissues were dissected and weighted.

[7] = system: phosphorylation of Akt and ERK in RD cells; test: Immunoblotting of feedback activation of Akt and ERK; type: cell-based, human; settings: up to 24 h, B591 10 μM
Description: Fig. 2 B591 inhibits PI3K/Akt pathway in multiple cancer cell lines. a Representative images of Akt1 redistribution in IGF-1-treated cells in the absence or presence of B591. Scale bar represents 10 μm. Arrows indicate IGF-1-mediated membrane translocation detected by the image analysis algorithm. b Inhibition of mTORC1 and mTORC2 signaling in multiple cancer cell lines, exposed for 5 h to increasing concentrations of B591. c HepG2 cells were treated with DMSO or 20 μM of B591 for 5 h. Immunofluorescence (red) intensity reflects eIF4E subcellular distribution. Cells were visualized with high content reader. Representative images are shown, and scale bar represents 50 μm. d Nuclear-to-cytoplasmic ratio of eIF4E in five cancer cell lines was determined via high content reader. e The phosphorylation of AKT and ERK was determined by immunoblotting in RD cells in the presence of 10 μM of B591 after indicated time of exposure. f Inhibition of the phosphorylation of AKT and ERK in RD cells treated with B591, PI-103 or Rapamycin for 24 h was determined by immunoblotting
Despite a significant efficacy in preclinical models, the clinical tumor response to mTORC1 inhibitors, such as rapalogs, is modest. […]

SMILES | Effect on PI3K/Akt, mTORC1 and mTORC2 signaling [1] | Proliferation inhibitory activity, mammosphere versus monolayer cells [2] | Apoptosis induction, mammosphere versus monolayer populations [3] | Secondary mammosphere-forming ability [4] | Formation of mammospheres / paclitaxel-enriched CSCs [5] | Tumor growth and regrowth after end of treatment [6] | Phosphorylation of Akt and ERK [7]
Oc1cccc(-c2nc(N3CCOCC3)c3oc4ncccc4c3n2)c1 [PI-103] | inhibited PI3K downstream mTORC1 and mTORC2 signaling | – | – | – | – | – | –
CC(=O)O[C@H]1C(=O)[C@@]2(C)[C@H]([C@H](OC(=O)c3ccccc3)[C@]3(O)C[C@H](OC(=O)[C@H](O)[C@@H](NC(=O)c4ccccc4)c4ccccc4)C(C)=C1C3(C)C)[C@]1(OC(C)=O)CO[C@@H]1C[C@@H]2O [paclitaxel, reference compound] | did not show any effect | mammosphere cells were resistant | induced less apoptosis of mammosphere populations than monolayer populations | increased | increased the formation of mammospheres | induced initial tumor remission, but these tumors regrew quickly after termination of paclitaxel therapy | –
CO[C@H]1C[C@@H]2CC[C@@H](C)[C@@](O)(O2)C(=O)C(=O)N2CCCC[C@H]2C(=O)O[C@H]([C@H](C)C[C@@H]2CC[C@@H](O)[C@H](OC)C2)CC(=O)[C@H](C)/C=C(\C)[C@@H](O)[C@@H](OC)C(=O)[C@H](C)C[C@H](C)/C=C/C=C/C=C/1C [rapamycin, reference compound] | – | – | – | – | – | – | induced a hyper-activation of Akt and increased ERK phosphorylation
